Reference: article PMC2686615 (International Immunology, 2009)
Where a SMILES comes first, the peptide text is derived from it.

What follows are compounds tested against soluble DQ8 proteins (HLA-DQ8, DQA1*0301/DQB1*0302) (Homo sapiens, UniProt P01909+P01920, A209T/A45G/C70Q/D89A/DUP78-78/E183D/E77G/F237L/G63E/H199R/I129T/K197E/L178F/L74F/L98V/Q57E/Q76R/S185I/S97I/T217I/T49S/V73L/Y58L).
Type: binding
`CC[C@H](C)[C@H](NC(=O)CNC(=O)[C@@H](NC(=O)[C@@H](N)CCCNC(=N)N)[C@@H](C)O)C(=O)N[C@@H](C)C(=O)N[C@@H](CCC(N)=O)C(=O)N[C@@H](C)C(=O)N[C@@H](CC(C)C)C(=O)N[C@@H](CO)C(=O)N[C@@H](CO)C(=O)N[C@@H](Cc1ccccc1)C(=O)N[C@@H](CC(=O)O)C(=O)N[C@@H](CC(C)C)C(=O)N[C@@H](Cc1c[nH]cn1)C(=O)O` [ZnT8 330–343] (H-RTGIAQALSSFDLH-OH) showed an IC50 of 2.5 µM. `CC[C@H](C)[C@H](NC(=O)[C@H](C)N)C(=O)N[C@@H](CC(C)C)C(=O)N[C@H](C(=O)N[C@@H](CC(=O)O)C(=O)N[C@@H](C)C(=O)N[C@@H](C)C(=O)N[C@@H](Cc1c[nH]cn1)C(=O)N[C@@H](CC(C)C)C(=O)N[C@@H](CC(C)C)C(=O)N[C@H](C(=O)N[C@@H](CC(=O)O)C(=O)N[C@@H](CC(C)C)C(=O)N[C@H](C(=O)O)[C@@H](C)O)[C@@H](C)CC)[C@@H](C)O` [ZnT8 98–111] (H-AILTDAAHLLIDLT-OH) was tested, and the IC50 was 7.2 µM. For `CC[C@H](C)[C@H](N)C(=O)N[C@@H](CC(C)C)C(=O)N[C@@H](CO)C(=O)N[C@H](C(=O)N[C@@H](Cc1c[nH]cn1)C(=O)N[C@H](C(=O)N[C@@H](C)C(=O)N[C@H](C(=O)N[C@@H](C)C(=O)N[C@@H](C)C(=O)N[C@@H](CO)C(=O)N[C@@H](CCC(N)=O)C(=O)N[C@@H](CC(=O)O)C(=O)N[C@@H](CO)C(=O)O)[C@@H](C)O)C(C)C)C(C)C` [ZnT8 313–326] (H-ILSVHVATAASQDS-OH), the IC50 was 4.9 µM. Work on `CC[C@H](C)[C@H](NC(=O)[C@H](CCC(N)=O)NC(=O)[C@@H](NC(=O)[C@@H](NC(=O)[C@@H](N)CC(C)C)[C@@H](C)O)[C@@H](C)CC)C(=O)N[C@@H](CCC(=O)O)C(=O)N[C@@H](CO)C(=O)N[C@@H](C)C(=O)N[C@@H](C)C(=O)N[C@@H](CC(=O)O)C(=O)N[C@@H](CCC(N)=O)C(=O)N[C@@H](CC(=O)O)C(=O)N1CCC[C@H]1C(=O)N[C@@H](CO)C(=O)O` [ZnT8 345–358] (H-LTIQIESAADQDPS-OH) yielded an IC50 of 2.5 µM. `CC[C@H](C)[C@H](NC(=O)[C@H](CCC(=O)O)NC(=O)[C@H](C)NC(=O)[C@H](CCCNC(=N)N)NC(=O)[C@H](Cc1ccc(O)cc1)NC(=O)[C@H](Cc1c[nH]c2ccccc12)NC(=O)CNC(=O)[C@H](Cc1ccccc1)NC(=O)[C@@H](NC(=O)[C@H](CC(C)C)NC(=O)[C@H](CCCNC(=N)N)NC(=O)[C@H](CCCCN)NC(=O)[C@@H](N)CO)[C@@H](C)O)C(=O)N[C@@H](CC(C)C)C(=O)O` [ZnT8 128–141] (H-SKRLTFGWYRAEIL-OH) gave an IC50 of 20.2 µM. Work on `CC[C@H](C)[C@H](NC(=O)CNC(=O)[C@H](C)NC(=O)[C@H](CCC(N)=O)NC(=O)[C@@H](NC(=O)[C@H](CCC(N)=O)NC(=O)[C@H](Cc1ccc(O)cc1)NC(=O)[C@H](CC(=O)O)NC(=O)[C@@H]1CCCN1C(=O)[C@H](Cc1ccc(O)cc1)NC(=O)[C@@H](N)CC(C)C)[C@@H](C)CC)C(=O)N[C@@H](CCSC)C(=O)N[C@H](C(=O)N[C@H](C(=O)O)[C@@H](C)O)[C@@H](C)CC` [ZnT8 166–179] (H-LYPDYQIQAGIMIT-OH) yielded an IC50 of 0.7 µM. In the case of `CC[C@H](C)[C@H](NC(=O)[C@H](Cc1c[nH]cn1)NC(=O)[C@H](CC(C)C)NC(=O)[C@H](CO)NC(=O)[C@H](Cc1c[nH]cn1)NC(=O)[C@@H](NC(=O)[C@H](CO)NC(=O)[C@@H](NC(=O)[C@@H](NC(=O)CNC(=O)[C@H](CC(=O)O)NC(=O)[C@@H](NC(=O)[C@H](C)N)C(C)C)C(C)C)[C@@H](C)CC)C(C)C)C(=O)N[C@@H](Cc1c[nH]c2ccccc12)C(=O)O` [ZnT8 292–305] (H-AVDGVISVHSLHIW-OH), the IC50 is reported as 18 µM.
